Measured values published in patent US10724949B2, “Cuvette for detecting bacteria and determining their susceptibility to antibiotics” (BacterioScan LTD., priority 2005, dated 2020).

Test system: E. coli
Assay: Light scattering (speckles image difference plots) test of bacterial susceptibility to an antibiotic agent in a filtered urine sample
Format: cell-based
Details: gentamicin 1% in test cuvette
Source text: Background signal originated by particles suspended in the sample of fluid that are larger than the bacteria are excluded by mechanically filtering according to the method of the present invention. However there are sources and light scatterers other than the bacteria that can contribute a stationary background signal. Such signals are typically originated by stationary particles present within the illuminated space, impurity of the light source, defects in, and or particles contaminating, the optical components. Therefore a difference plot is computed for excluding stationary background according to a preferred embodiment of the present invention. The intensity measured in every pixel of a speckles image is subtracted from the intensity measured in the same pixel of a preceding speckles image to form a difference plot. […]
For determining the susceptibility of bacteria to an antibiotic agent, an average value of at least two averaged derivatives computed first for a test cuvette, immediately following the introduction of an antibiotic agent, are compared to an average of the same number of averaged derivatives computed for speckles images received a few minutes later, preferably after more than 5 minutes. The antibiotic agent for which the difference between these averaged derivatives is the larger is determined. […]

gentamicin
concentration of non-stationary scatterers (difference plots of speckles images) (urine containing E. coli 10^5 CFU/ml, difference plot 30 minutes later vs immediately following introduction (FIG. 9B, 9C)): significant reduction | values of the averaged derivative of the concentration of scatterers in time (normalised by their maximal value) (urine containing E. coli, a few minutes after the introduction of the antibiotics (FIG. 9D)): significant reduction (of a few tens of percents)
